In PMC9133036 (Nature Communications, 2022):
Changes are numbered by the printed parent chain. “And” between values parts separate entries of the source, which are not always exact repeats. Identical values can stand only once.

Assays:
Assay type in all cases: cell-based
OX2R T111A = biological target: T1, OX2R T111A (Homo sapiens, UniProt O43614, T111A); assay: IP accumulation assay, OX2R T111A; settings: for % IP accumulation: listed as OXB
T1 construct: FLAG; expressed in transfected cells; host or cells: HEK293
T1 sequence (O43614 1-444 T111A): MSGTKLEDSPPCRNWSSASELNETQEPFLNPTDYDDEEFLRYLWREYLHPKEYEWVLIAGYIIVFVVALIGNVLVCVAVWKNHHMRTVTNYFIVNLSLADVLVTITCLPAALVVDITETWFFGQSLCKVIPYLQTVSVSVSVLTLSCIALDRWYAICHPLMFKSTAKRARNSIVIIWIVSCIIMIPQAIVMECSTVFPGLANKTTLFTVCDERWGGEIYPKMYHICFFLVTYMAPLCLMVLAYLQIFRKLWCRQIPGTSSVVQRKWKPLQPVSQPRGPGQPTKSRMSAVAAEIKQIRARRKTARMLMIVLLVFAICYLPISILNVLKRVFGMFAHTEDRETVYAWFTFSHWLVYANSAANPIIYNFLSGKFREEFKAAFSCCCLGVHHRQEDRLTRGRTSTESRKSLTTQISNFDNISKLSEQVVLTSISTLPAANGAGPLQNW
Excerpt: (§1) The IP assay was adapted from a prior precedent. HEK293 cells were maintained in DMEM-high glucose (Millipore Sigma) supplemented with 5% fetal bovine serum (Corning) and penicillin-streptomycin (Millipore Sigma). Receptor constructs used were the full-length wild-type (or mutant) human OX1R and OX2R sequences cloned into pCDNA3. To enhance the Emax in the IP assay, a plasmid encoding full-length human Gαq subunit[66] was co-transfected into HEK293 cells with plasmids encoding orexin receptor constructs using Lipofectamine 3000 (Thermo Fisher). 24 h after transfection, the cells were plated on poly-D-lysine coated (Millipore Sigma) tissue culture-treated 96 well white plates with clear bottoms (Perkin Elmer) at 30,000 cells per well in Inositol-free DMEM (MP Biomedicals) supplemented with 5% fetal bovine serum, 4 mM L-glutamine (Millipore Sigma), penicillin-streptomycin, and about 5 uCi (5 ul) per ml myo-[2-3H] inositol (Perkin Elmer). The following day, the media was replaced with agonists that were diluted in HBSS (Millipore Sigma) containing 10 mM lithium chloride (Millipore Sigma) and incubated at 37 °C for 45 min. Then agonists were removed and cells were lysed on ice for 30 min with 10 mM formic acid (Millipore Sigma). 1.25 mg of poly-lysine coated YSI SPA beads (Perkin Elmer) was added to each well. The plates were mixed on an orbital shaker for 30 min. The plates were read on a MicroBeta scintillation counter (Perkin Elmer) the following day. IP accumulation assays on different constructs were performed in n ≥ 3 independent experiments (each done in duplicate), where n is shown in Supplementary Table 2.

OX2R N324A = biological target: T2, OX2R N324A (Homo sapiens, UniProt O43614, N324A); assay: IP accumulation assay, OX2R N324A;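 for % IP accumulation: 100% equals the maximal response of wild-type OX2R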
T2 construct: FLAG; expressed in transfected cells; host or cells: HEK293
T2 sequence (O43614 1-444 N324A): T1 sequence (O43614 1-444 T111A) with A111T, N324A
Excerpt: as §1

OX1R S103T = biological target: T3, OX1R S103T (Homo sapiens, UniProt O43613, S103T); assay: IP accumulation assay, OX1R S103T
T3 construct: FLAG; expressed in transfected cells; host or cells: HEK293
T3 sequence (O43613 1-425 S103T): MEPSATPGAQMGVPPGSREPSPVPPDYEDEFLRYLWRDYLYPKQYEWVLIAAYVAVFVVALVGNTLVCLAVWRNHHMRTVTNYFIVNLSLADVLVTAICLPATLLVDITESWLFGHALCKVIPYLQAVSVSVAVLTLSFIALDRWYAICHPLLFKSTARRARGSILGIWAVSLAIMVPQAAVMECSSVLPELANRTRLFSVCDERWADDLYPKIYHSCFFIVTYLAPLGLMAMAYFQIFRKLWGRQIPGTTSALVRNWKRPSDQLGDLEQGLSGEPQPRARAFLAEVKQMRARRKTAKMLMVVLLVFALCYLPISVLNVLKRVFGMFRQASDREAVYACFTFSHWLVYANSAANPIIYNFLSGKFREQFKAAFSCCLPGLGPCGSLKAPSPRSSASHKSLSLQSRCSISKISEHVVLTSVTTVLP
Excerpt: as §1

human OX2R wild type = biological target: T4, human OX2R wild type (Homo sapiens, UniProt O43614); assay: β-arrestin PathHunter assay, OX2R WT; design: expressed in transfected cells; host or cells: CHO-K1 stably expressing EA β-arrestin2; settings: listed as OxB
T4 sequence (O43614 1-444): T1 sequence (O43614 1-444 T111A) with A111T
Experimental: β-Arrestin recruitment activity was measured by using the PathHunter system (DiscoveRX) according to the manufacturer’s instruction. Receptor constructs used were the full-length wild-type (or mutant) human OX2R sequences cloned into pCMV-ProLink (DiscoveRX). […] Cells were transfected with plasmids encoding wild type or each mutant ProLink-tagged human OX2R using FuGENE HD (Promega). […] Detection reagent was added and incubated for 1 h at room temperature. Luminescent signal was detected using an EnVision plate reader (PerkinElmer). β-arrestin assays on different constructs were performed in two or three independent experiments (each done in quadruplicate). Dose response curves (shown in Supplementary Fig. 8) were fitted to the three-parameter model ‘log(agonist) vs response’ in GraphPad Prism to determine pEC50 values.

With `COC(=O)N1CCC[C@H](NS(C)(=O)=O)[C@@H]1CO[C@H]1CC[C@@H](c2ccccc2)CC1` [TAK-925, methyl (2R,3S)−3-[(methylsulfonyl)amino]−2-{[(cis−4-phenylcyclohexyl)oxy]methyl}piperidine-1-carboxylate] the EC50 (OX2R T111A; IP accumulation) was 2100 nM, the Emax (OX2R T111A; relative to OX2R WT/TAK-925) was 53 and the EC50 (OX2R N324A; IP accumulation) was 18 nM. For the same molecule, the “% IP accumulation” value (OX2R N324A; TAK-925 conc (log, M) -4.52) was 38.90% and 50.17% and 61.68%, the “% IP accumulation” value (OX2R N324A; TAK-925 conc (log, M) -5.00) was 44.83% and 48.29% and 62.09% and the “% IP accumulation” value (OX2R N324A; TAK-925 conc (log, M) -5.48) was 54.68% and 49.83% and 60.54%. The “% IP accumulation” value (OX2R N324A; TAK-925 conc (log, M) -5.95) was 62.62% and 51.37% and 66.38%, the “% IP accumulation” value (OX2R N324A; TAK-925 conc (log, M) -6.43) was 60.89% and 49.04% and 58.43% and the “% IP accumulation” value (OX2R N324A; TAK-925 conc (log, M) -6.91) was 55.51% and 43.02% and 53.52%. For the same molecule, the “% IP accumulation” value (OX2R N324A; TAK-925 conc (log, M) -7.39) was 29.79% and 34.77% and 41.19%, the “% IP accumulation” value (OX2R N324A; TAK-925 conc (log, M) -7.86) was 20.98% and 26.21% and 25.22% and the “% IP accumulation” value (OX2R N324A; TAK-925 conc (log, M) -8.34) was 10.23% and 11.60% and 16.93%. The “% IP accumulation” value (OX2R N324A; TAK-925 conc (log, M) -8.82) was 0.00% and 5.30%, the “% IP accumulation” value (OX2R N324A; TAK-925 conc (log, M) -9.29) was 0.24% and 0.00% and 4.28% and the Emax (OX2R N324A; relative to OX2R WT/TAK-925) was 55. The activation at 100 µM (OX1R S103T; 0.75 h, TAK-925 conc (log, M) -4.00) was 122%, the activation at 11.2 µM (OX1R S103T; 0.75 h, TAK-925 conc (log, M) -4.95) was 88.4% and the activation at 3.72 µM (OX1R S103T; 0.75 h, TAK-925 conc (log, M) -5.43) was 57.1%. The activation at 1.23 µM (OX1R S103T; 0.75 h, TAK-925 conc (log, M) -5.91) was 21.9%, the activation at 0.0457 µM (OX1R S103T; 0.75 h, TAK-925 conc (log, M) -7.34) was 9.04% and the EC50 (OX1R S103T; IP accumulation) was 5300 nM. For the same molecule, the Emax (OX1R S103T; relative to OX1R S103T/A127T/TAK-925) was 130.
orexin B was tested, and the “% IP accumulation” value (OX2R T111A; OXB conc (log, M) -6.95) was 23.30% and 22.94% and 22.04%, the “% IP accumulation” value (OX2R T111A; OXB conc (log, M) -7.43) was 18.33% and 16.23% and 14.57% and the “% IP accumulation” value (OX2R T111A; OXB conc (log, M) -7.91) was 15.27% and 13.44% and 11.80%. For the same molecule, the “activation of the mutant receptor” value (OX2R N324A; Gq signaling, IP accumulation) was “fails to activate”, the “% IP accumulation” value (OX2R N324A; OXB conc (log, M) -6.95, listed as OXB) was 32.75% and 37.01% and 40.09% and the “% IP accumulation” value (OX2R N324A; OXB conc (log, M) -7.43, listed as OXB) was 25.51% and 22.88% and 29.36%. For the same molecule, the “% IP accumulation” value (OX2R N324A; OXB conc (log, M) -7.91, listed as OXB) was 19.13% and 21.90% and 18.40%, the “% IP accumulation” value (OX2R N324A; OXB conc (log, M) -8.39, listed as OXB) was 9.56% and 13.73% and 13.07% and the “% IP accumulation” value (OX2R N324A; OXB conc (log, M) -8.86, listed as OXB) was 3.38% and 9.31% and 7.17%. The “% IP accumulation” value (OX2R N324A; OXB conc (log, M) -9.34, listed as OXB) was 7.35% and 10.16% and 5.28%, the “% IP accumulation” value (OX2R N324A; OXB conc (log, M) -9.82, listed as OXB) was 3.06% and 4.95% and 0.00% and the “% IP accumulation” value (OX2R N324A; OXB conc (log, M) -10.29, listed as OXB) was 0.00% and 2.10%. The “beta-arrestin recruitment fold change” value (human OX2R wild type; OxB concentration -6.00 (log, M)) was 25.382 fold and 21.415 fold and 21.711 fold and 14.809 fold, the “beta-arrestin recruitment fold change” value (human OX2R wild type; OxB concentration -6.52 (log, M)) was 25.694 fold and 21.531 fold and 23.664 fold and 15.569 fold and the “beta-arrestin recruitment fold change” value (human OX2R wild type; OxB concentration -7.00 (log, M)) was 27.509 fold and 22.224 fold and 24.930 fold and 18.908 fold. The “beta-arrestin recruitment fold change” value (human OX2R wild type; OxB concentration -7.52 (log, M)) was 19.878 fold and 18.553 fold and 19.712 fold and 17.639 fold, the “beta-arrestin recruitment fold change” value (human OX2R wild type; OxB concentration -8.00 (log, M)) was 16.213 fold and 13.992 fold and 16.040 fold and 14.141 fold and the “beta-arrestin recruitment fold change” value (human OX2R wild type; OxB concentration -8.52 (log, M)) was 11.509 fold and 10.398 fold and 11.514 fold and 8.169 fold. The “beta-arrestin recruitment fold change” value (human OX2R wild type; OxB concentration -9.00 (log, M)) was 4.809 fold and 5.512 fold and 5.245 fold and 5.387 fold and the “beta-arrestin recruitment fold change” value (human OX2R wild type; OxB concentration -10.00 (log, M)) was 1.518 fold and 1.553 fold and 1.554 fold and 2.080 fold.
